Tested on: optogenetically induced ventral hippocampal seizures in rats
Details: same animals awake and under dexmedetomidine sedation
From the text: (A,B) Ventral hippocampal LFP recordings from the same animal and seizures induced when awake and under sedation. Red arrow indicates large amplitude spike onset, and insets i-iii) are magnified components of those seizures. Blue bar indicates time of optogenetic stimulation (40 Hz with 7.5 ms pulses) (C) Another set of electrophysiological recordings from a different animal in the awake and sedated state. […] Each line represents a single animal.
The afterdischarge threshold was first evaluated for each individual animal by gradually increasing stimulation intensity in a step-wise manner to drive electrographic seizures in the absence of behavioral seizures as assessed using the Racine scale. Starting with a 10 s train of 40 Hz stimulation with a pulse width of 7.5 ms at 1 mW, the power was increased 1 mW at a time with an interstimulus interval (ISI) of 1 min up to a maximum of 20 mW. If no afterdischarges were observed, the duration was increased by 2.5 s and power was reset to 1 mW.
Simultaneous LFP-ofMRI Data Acquisition to assess ventral hippocampal connectivity. To assess ventral hippocampal connectivity, CAMKIIa cells in ventral hippocampus were stimulated at 10 Hz using optogenetic stimulation and assessed using simultaneous LFP-fMRI. Data acquisition was performed using the 7T horizontal-bore system (Bruker BioSpec 70/30) at the Stanford Center for Innovation in In-Vivo Imaging (SCi3). […] A single bolus of Feraheme (15 mg/kg, i.v.) was used for cerebral blood volume (CBV) weighted imaging for the enhanced contrast to noise ratio (Mandeville et al., 1998) and microvascular sensitivity (Zhao et al., 2006) that this technique offers in comparison to BOLD fMRI. fMRI acquisition was carried out approximately 15 min post contrast agent injection using a 4-shot segmented spiral readout with the following acquisition parameters: TR=0.75 ms, TE=9 ms, flip angle=30, field-of-view=32×32 mm, matrix=70×70, slice thickness=0.6 mm, number of slices=30, number of repetitions=130, number of dummy scans=4. […]

## Cc1cccc([C@H](C)c2cnc[nH]2)c1C [dexmedetomidine]
40 Hz, 7.5 ms pulses, FIG. 10D
  proportion of stimulations resulting in afterdischarges, awake vs sedated: No differences
FIG. 10E
  large amplitude spike onset, awake vs sedated: No differences
FIG. 10F
  afterdischarge duration, sedated vs awake: did not result in shorter afterdischarges
